This is an account of results in ChEMBL document CHEMBL1201862, “PubChem BioAssay data set” (2004).

The structures appear in SMILES notation.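 Growth conditions: 96-well plates. Treatment: test compound, 48 hours, 5 concentrations. Analysis: linear interpolation between bracketing concentrations; unreached endpoints set to highest concentration. At the GI50, growth is halved.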 The source made the active and inactive calls. Cut-off read from the data, not from the text of the source: active = GI50 up to about 1.1 µM and inactive = higher.

Common to all, as to assay: NCI anticancer screen, dose series, 48 h
The subject of test [1] is SF-539.
Test [2] has as its system SNB-19.
Test [3] relates to RPMI-8226.
For test [4], the system named is NCI-H226.
The test system of test [5] is RXF 393.
Test [6] concerns OVCAR-5.
Test [7] relates to K562.
Test [8] relates to SW-620.
In test [9] the test system is MDA-MB-435.
For test [10], the system named is HCT-15.
The test system of test [11] is A549.
Test [12] has as its system T47D.
The test system of test [13] is SK-MEL-2.
In test [14] the test system is HCC 2998.
Test [15] concerns SK-MEL-5.
Test [16] has as its system SNB-75.
The subject of test [17] is KM12.
Test [18] concerns HCT-116.
Test [19] concerns Hs-578T.

On to `C=C(OC1C(C)=C2C(C1OC(=O)CCCCCCC)C(C)(OC(C)=O)CC(OC(=O)CCC)C1(O)C2OC(=O)C1(C)O)/C(C)=C/C` (configuration not stated), for which the GI50 in test [1] is 0.0125 µM (active); in test [2], 0.0422 µM (active); in test [3], 0.0125 µM (active); in test [4], 0.0641 µM (active); in [5] it was 0.0125 µM (active); in test [6], 0.034 µM (active). The GI50 in test [7] was 0.0125 µM (active); in [8], 0.0125 µM (active); in test [9], < 0.0001 µM (active); in test [10] it was 0.0316 µM; in test [11] it was 0.0125 µM (active); in [12], 0.000135 µM (active). Moreover, the GI50 in test [13], in test [14], in [15], in [16] and in test [17] was 0.0125 µM (active) throughout.

For `N=C(N)C1=C(O)NC(=O)N(C2CCCCC2)C1`, the GI50 in [1], in test [2], in test [3], in [4], in test [5] and in test [6] was > 100 µM (inactive) each time. Moreover, the GI50 in test [7] was > 100 µM (inactive); in test [8] it was > 100 µM (inactive); in [10], greater than 100 µM; in test [11] it was > 100 µM (inactive); in [18], > 100 µM (inactive); in test [13] it was > 100 µM (inactive). Besides, the GI50 in test [14], in [15], in [16] and in test [17] was > 100 µM (inactive) throughout.

Take `O.O=C([O-])c1ccccc1Nc1ccccc1C(=O)[O-].[Zn+2]`: the GI50 in [1] was 37.7 µM (inactive); in test [2] it was 17.4 µM (inactive); in [3], 48 µM (inactive); in test [4] it was 31 µM (inactive); in test [5], 20.6 µM (inactive); in test [6] it was 28.2 µM (inactive). The GI50 in test [7] was 28.9 µM (inactive); in test [8], 23.6 µM (inactive); in test [10], greater than 60 µM; in test [11], 47.1 µM (inactive); in test [18], 38.4 µM (inactive); in test [13] it was 20.7 µM (inactive). Moreover, the GI50 in test [14] is > 100 µM (inactive); in [15], 25.5 µM (inactive); in test [16], 18.3 µM (inactive); in test [17], > 100 µM (inactive).

For the molecule `C#CCn1c(=O)c2cccnc2n(CC#C)c1=O`, the GI50 in [2], in test [3], in [4], in [5], in [6] and in [8] was > 100 µM (inactive) each time. Further, the GI50 in test [10] is greater than 100 µM; in test [11], > 100 µM (inactive); in test [18], > 100 µM (inactive); in [13] it was > 100 µM (inactive); in test [14], > 100 µM (inactive); in test [15], > 100 µM (inactive). The GI50 in [16] and in [17] was > 100 µM (inactive) in each case.

In the case of `C#CC(O)/C=C/C(O)CCCC(O)CC#CC(O)C#CC(O)CCCC(O)/C=C/CCCCCC(=O)CCCCCCCCCCCCCC(O)C(O)C#CC(=O)O` (configuration not stated), the GI50 was > 50 µM (inactive) in test [2]; 26.5 µM (inactive) in [3]; > 50 µM (inactive) in test [4]; > 50 µM (inactive) in [6]; 12.2 µM (inactive) in test [19]; > 50 µM (inactive) in [7]. For the same molecule, the GI50 in test [9] was > 50 µM (inactive); in [10], greater than 50 µM; in test [11] it was > 50 µM (inactive); in test [18] it was > 50 µM (inactive); in test [12], 10.9 µM (inactive); in test [13] it was 15 µM (inactive). Further, the GI50 in test [14] was > 50 µM (inactive); in test [15] it was > 50 µM (inactive); in test [16], 12.3 µM (inactive); in test [17] it was > 50 µM (inactive).

For `CS(=O)(=O)ON1C(=O)c2ccc(N)cc2C1=O`, the GI50 in test [1] is > 72.9 µM (inactive); in test [2], > 100 µM (inactive); in [3], 23.8 µM (inactive); in test [4] it was > 100 µM (inactive); in test [5] it was > 40.9 µM (inactive); in test [6], > 100 µM (inactive). Moreover, the GI50 in test [7] was 42.8 µM (inactive); in test [8], 52.1 µM (inactive); in test [10], 71.4 µM; in test [11] it was > 100 µM (inactive); in [18], > 79.8 µM (inactive); in [13], > 100 µM (inactive). Further, the GI50 in test [14], in test [15], in test [16] and in test [17] was > 100 µM (inactive) in each case.

On to `COC(C/C(=C/CO[Si](C(C)C)(C(C)C)C(C)C)C(=O)N(COCC[Si](C)(C)C)c1ccccc1I)OC`, for which the GI50 in test [2] was 26.1 µM (inactive); in test [3], > 100 µM (inactive); in [4] it was 36 µM (inactive); in test [6], 32.4 µM (inactive); in test [19], 48.2 µM (inactive); in test [7], > 100 µM (inactive). In addition, the GI50 was 33.5 µM (inactive) in test [8]; 5.53 µM (inactive) in [9]; 41.1 µM in test [10]; 37.2 µM (inactive) in test [11]; 13.2 µM (inactive) in [18]; 32.6 µM (inactive) in test [12]. Moreover, the GI50 was 14.9 µM (inactive) in test [13]; 43.9 µM (inactive) in test [14]; 20.1 µM (inactive) in [15]; > 100 µM (inactive) in test [16]; 31.8 µM (inactive) in test [17].

Regarding `O=C1C=CC2(C=C1)CCNC1=C2C(=O)c2ccccc2C1=O`, the GI50 in [1], in test [3], in test [4], in [5], in [6] and in test [7] was > 100 µM (inactive) in each case. For the same molecule, the GI50 is > 100 µM (inactive) in test [8]; greater than 100 µM in test [10]; > 100 µM (inactive) in test [11]; > 100 µM (inactive) in test [18]; > 100 µM (inactive) in [13]; > 100 µM (inactive) in [14]. In addition, the GI50 in test [15] was 56.9 µM (inactive); in test [16], 30.8 µM (inactive); in test [17], > 100 µM (inactive).

With `N#CCCC1(CCC#N)CCCCCCCCC(CCC#N)(CCC#N)C(=O)C1=O`, the GI50 is 44.6 µM (inactive) in [1]; > 100 µM (inactive) in test [2]; > 100 µM (inactive) in test [4]; > 100 µM (inactive) in test [6]; 91 µM (inactive) in test [19]; 83.9 µM (inactive) in test [7]. Besides, the GI50 in [8] was > 100 µM (inactive); in [9], > 100 µM (inactive); in [10], greater than 100 µM; in [11] it was > 100 µM (inactive); in test [18], > 100 µM (inactive); in test [12], 36.6 µM (inactive). The GI50 in test [13] was > 100 µM (inactive); in test [14] it was > 100 µM (inactive); in test [16], 63.8 µM (inactive); in test [17], > 100 µM (inactive).

On to `CCOC(=O)Nc1[nH]cc(-c2ccccc2)c1C#N`, for which the GI50 in test [2], in test [3], in test [4], in test [6], in [19] and in test [7] was > 100 µM (inactive) in each case. Moreover, the GI50 was > 100 µM (inactive) in [8]; > 100 µM (inactive) in test [9]; greater than 100 µM in test [10]; > 100 µM (inactive) in [11]; > 100 µM (inactive) in test [18]; > 100 µM (inactive) in test [13]. The GI50 in [15], in [16] and in test [17] was > 100 µM (inactive) throughout.

With `O=C(c1ccccc1)C(c1ccccc1)C1(O)C(=O)Nc2c(Cl)cc(Cl)cc21` (configuration not stated), the GI50 in [2] is 21.7 µM (inactive); in test [3], 8.34 µM (inactive); in [4], 16.7 µM (inactive); in [5] it was 19.1 µM (inactive); in test [6], 17.1 µM (inactive); in test [7], 15.5 µM (inactive). Moreover, the GI50 was 14.4 µM (inactive) in [8]; 39.4 µM in test [10]; 18.9 µM (inactive) in test [11]; 16.8 µM (inactive) in test [13]; 16.3 µM (inactive) in [14]; 15.8 µM (inactive) in test [15]. The values for the GI50 in [16] and in [17] were 15.3 µM (inactive) and 23 µM (inactive), respectively.

Turning to `O=C(N/C=C/C=C/Sc1ccccc1)OCc1ccccc1`, the GI50 in test [1] is 16.5 µM (inactive); in [2] it was 33.3 µM (inactive); in test [3] it was 18.7 µM (inactive); in [4] it was 19.9 µM (inactive); in test [5], 20.1 µM (inactive); in [6], 14.3 µM (inactive). The GI50 in [7] was 15.4 µM (inactive); in test [8], 17.7 µM (inactive); in [10], 18.1 µM; in test [11], 20.4 µM (inactive); in test [18], 18.2 µM (inactive); in [13] it was > 10 µM (inactive). Besides, the GI50 was 20.1 µM (inactive) in test [14], 17.7 µM (inactive) in test [15], 21.5 µM (inactive) in [16] and 17.5 µM (inactive) in test [17].

With `c1ccc2c3c([nH]c2c1)[C@H]1C2CCCCN2CN1CC3` (some centres not stated), the GI50 is > 100 µM (inactive) in [1]; > 100 µM (inactive) in test [2]; > 100 µM (inactive) in [3]; 89.9 µM (inactive) in test [5]; > 100 µM (inactive) in [6]; > 100 µM (inactive) in test [7]. Further, the GI50 in [8] is > 100 µM (inactive); in [10] it was greater than 100 µM; in test [11], > 100 µM (inactive); in test [18] it was > 100 µM (inactive); in test [13], > 100 µM (inactive); in test [14], > 100 µM (inactive). The GI50 was > 100 µM (inactive) in test [15] and 27.1 µM (inactive) in [16].
